# Assay results reported in patent publication US20240158348A1, “HERBICIDAL CYCLIC AMIDES N-SUBSTITUTED WITH A HALOALKYLSULFONYLANILIDE GROUP” (FMC Corporation, priority 2021, published 2024).
# Tests used:
# Format in all cases: in vivo
# [1] = tested on: ragweed (common ragweed, Ambrosia artemisiifolia); assay: Test C preemergence, ragweed; settings: 0 is no effect, 100 is complete control
# Summary of the method: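 Plants grown in a sand and loam soil blend received the formulated test chemicals either as a preemergence soil-directed spray or postemergence at 2 to 10 cm height. After 10 or 12 greenhouse days, injury was assessed visually, with 100 meaning complete control.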
# [2] = tested on: oat, wild (wild oat, Avena fatua); assay: Test C preemergence, wild oat; settings: 0 is no effect, 100 is complete control
# Summary of the method: (§1)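 Greenhouse pot test. Compounds in a non-phytotoxic solvent with surfactant were applied to a loam–sand soil mix either preemergence as a directed spray or postemergence to plants at the one- to two-leaf stage; 0–100 visual ratings followed after 10 or 12 days.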
# [3] = tested on: ducksalad (Heteranthera limosa); assay: Test D flooded paddy test, ducksalad; parameters: key: 0 = no effect, 100 = complete control; settings: 250 g ai/ha, Flood; applied to paddy water at 2-leaf stage; visual rating after 13 days; scale 0 (no effect) to 100 (complete control)
# Summary of the method: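 Visual response scores run 0 (no effect) to 100 (complete control), judged against controls 13 days after treatment. Compounds were added to paddy water 3 cm deep over soil, around plants at the 2-leaf stage kept in a greenhouse.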
# [4] = tested on: foxtail, giant (giant foxtail, Setaria faberi); assay: Test C preemergence, giant foxtail; settings: 0 is no effect, 100 is complete control
# Summary of the method: as §1
# [5] = tested on: oat, wild (wild oat, Avena fatua); assay: Test C postemergence, wild oat; settings: for Oat, Wild plant response rating: visual injury, 0 to 100 scale (0 no effect, 100 complete control); for Plant response rating (0 to 100 scale), Oat, Wild: 0 is no effect, 100 is complete control
# [6] = tested on: wheat (Triticum aestivum); assay: Test C postemergence, wheat; settings: for Wheat plant response rating: visual injury, 0 to 100 scale (0 no effect, 100 complete control); for Plant response rating (0 to 100 scale), Wheat: 0 is no effect, 100 is complete control
# Summary of the method: as §1
# [7] = tested on: pigweed, palmer (palmer amaranth, Amaranthus palmeri); assay: Test C preemergence, palmer amaranth; settings: 0 is no effect, 100 is complete control
# Summary of the method: as §1
# [8] = tested on: soybean (Glycine max); assay: Test C postemergence, soybean; settings: for Soybean plant response rating: visual injury, 0 to 100 scale (0 no effect, 100 complete control); for Plant response rating (0 to 100 scale), Soybean: 0 is no effect, 100 is complete control
# [9] = tested on: blackgrass (Alopecurus myosuroides); assay: Test C preemergence, blackgrass; settings: 0 is no effect, 100 is complete control
# Summary of the method: as §1
SMILES,"Plant response rating (0 to 100 scale), Ragweed ([1]; 31 g ai/ha Preemergence)","Plant response rating (0 to 100 scale), Ragweed ([1]; 125 g ai/ha Preemergence)","Plant response rating (0 to 100 scale), Oat, Wild ([2]; 31 g ai/ha Preemergence)","Plant response rating (0 to 100 scale), Oat, Wild ([2]; 125 g ai/ha Preemergence)","Plant response rating, Ducksalad [3]","Plant response rating (0 to 100 scale), Foxtail, Giant ([4]; 31 g ai/ha Preemergence)","Plant response rating (0 to 100 scale), Foxtail, Giant ([4]; 125 g ai/ha Preemergence)","Oat, Wild plant response rating ([5]; 31 g ai/ha Postemergence)","Plant response rating (0 to 100 scale), Oat, Wild ([5]; 125 g ai/ha Postemergence)",Wheat plant response rating ([6]; 31 g ai/ha Postemergence),"Plant response rating (0 to 100 scale), Wheat ([6]; 125 g ai/ha Postemergence)","Plant response rating (0 to 100 scale), Pigweed, Palmer ([7]; 31 g ai/ha Preemergence)","Plant response rating (0 to 100 scale), Pigweed, Palmer ([7]; 125 g ai/ha Preemergence)",Soybean plant response rating ([8]; 31 g ai/ha Postemergence),"Plant response rating (0 to 100 scale), Soybean ([8]; 125 g ai/ha Postemergence)","Plant response rating (0 to 100 scale), Blackgrass ([9]; 31 g ai/ha Preemergence)","Plant response rating (0 to 100 scale), Blackgrass ([9]; 125 g ai/ha Preemergence)","Oat, Wild plant response rating ([5]; 125 g ai/ha Postemergence)",Wheat plant response rating ([6]; 125 g ai/ha Postemergence),Soybean plant response rating ([8]; 125 g ai/ha Postemergence)
"Cc1cc(C)c(N2CC/C(=N\O)C2=O)cc1NS(=O)(=O)C(F)(F)F [Compound 10, 1,1,1-trifluoro-N-[5-[3-(hydroxyimino)-2-oxo-1-pyrrolidinyl]-2,4-dimethylphenyl]methanesulfonamide]",0,30,90,100,90,90,100,80,80,80,80,50,100,80,80,,,,,
C=CCO/N=C1\CCN(c2cc(NS(=O)(=O)C(F)(F)F)c(C)cc2C)C1=O [Compound 11],80,90,30,100,100,100,100,,,80,90,70,100,100,100,60,100,,,
"CCO/N=C1\CCN(c2cc(NS(=O)(=O)C(F)(F)F)c(C)cc2C)C1=O [Compound 12, N-[5-[3-(ethoxyimino)-2-oxo-1-pyrrolidinyl]-2,4-dimethylphenyl]-1,1,1-trifluoromethanesulfonamide]",100,100,90,100,100,100,100,90,90,80,90,100,100,100,100,80,100,,,
"C#CCO/N=C1\CCN(c2cc(NS(=O)(=O)C(F)(F)F)c(C)cc2C)C1=O [Compound 13, N-[2,4-dimethyl-5-[2-oxo-3-[(2-propyn-1-yloxy)imino]-1-pyrrolidinyl]phenyl]-1,1,1-trifluoromethanesulfonamide]",50,100,100,100,100,100,100,90,90,90,90,100,100,100,100,90,100,,,
Cc1c(N2CCC(OC3CCC3)C2=O)cc(N(C(=O)OCC(C)C)S(=O)(=O)C(F)(F)F)c(C)c1C (stereo not drawn) [Compound 48],20,90,50,80,95,30,100,10,,30,,100,100,30,,,,20,70,70
Cc1c(N2CCC(OC3CC3)C2=O)cc(N(COC(=O)C(C)(C)C)S(=O)(=O)C(F)(F)F)c(C)c1C (stereo not drawn) [Compound 49],100,100,60,90,95,20,90,30,,70,,30,100,60,,,,70,70,80
Cc1c(N2CCC(OC3CCC3)C2=O)cc(N(COC(=O)C(C)(C)C)S(=O)(=O)C(F)(F)F)c(C)c1C (stereo not drawn) [Compound 51],0,70,20,50,85,10,90,0,,20,,20,60,30,,,,30,70,60
Cc1cc(C)c(N2CCC(OCC3CCC3(F)F)C2=O)cc1NS(=O)(=O)C(F)(F)F (stereo not drawn) [Compound 52],0,30,20,90,90,90,100,10,,20,,70,100,60,,,,60,70,70
Cc1cc(C)c(N(COC(=O)C(C)(C)C)S(=O)(=O)C(F)(F)F)cc1N1CCC(OCC2CC2)C1=O (stereo not drawn) [Compound 53],60,70,0,90,70,10,90,10,,40,,30,90,50,,,,50,80,60
Cc1cc(C)c(N(COC(=O)C(C)(C)C)S(=O)(=O)C(F)(F)F)cc1N1CCC(OCC2CC2(F)F)C1=O (stereo not drawn) [Compound 54],0,60,0,80,90,0,80,10,,30,,0,50,50,,,,80,70,60
Cc1cc(C)c(N(COC(=O)C(C)(C)C)S(=O)(=O)C(F)(F)F)cc1N1CCC(OCC2CC(F)(F)C2)C1=O (stereo not drawn) [Compound 55],,40,0,20,90,0,10,20,,20,,0,30,50,,,,30,70,70
Cc1cc(C)c(N(COC(=O)C(C)(C)C)S(=O)(=O)C(F)(F)F)cc1N1CCC(OCC2CCC2)C1=O (stereo not drawn) [Compound 56],0,30,0,0,85,0,80,10,,0,,10,90,40,,,,10,70,50
